pIC50: −log10 of the molar value. Starred links: 1 amine or outer side, 2 acyl side, 3 side chain; linkers in the order of their positions; H or OH if unused. Positions of bridges follow the written chain, without caps; N, C: chain ends. Non-standard residues stand in square brackets, D forms with d. Residues, ends and D or L forms follow the SMILES beside them. Adda = CO[C@@H](Cc1ccccc1)[C@@H](C)/C=C(C)/C=C/[C@H](N[*:1])[C@H](C)C(=O)[*:2]; dAsp(3S-Me) = C[C@H](C(=O)[*:3])[C@@H](N[*:1])C(=O)[*:2]; d(γGlu) = O=C(O)[C@@H](CCC(=O)[*:2])N[*:1]; NMeDha = C=C(NC)C(=O)O
How the values were obtained:
PP2A = PP2A (Homo sapiens, UniProt P67775); conditions: cited from earlier work
Sequence of PP2A (P67775 whole entry): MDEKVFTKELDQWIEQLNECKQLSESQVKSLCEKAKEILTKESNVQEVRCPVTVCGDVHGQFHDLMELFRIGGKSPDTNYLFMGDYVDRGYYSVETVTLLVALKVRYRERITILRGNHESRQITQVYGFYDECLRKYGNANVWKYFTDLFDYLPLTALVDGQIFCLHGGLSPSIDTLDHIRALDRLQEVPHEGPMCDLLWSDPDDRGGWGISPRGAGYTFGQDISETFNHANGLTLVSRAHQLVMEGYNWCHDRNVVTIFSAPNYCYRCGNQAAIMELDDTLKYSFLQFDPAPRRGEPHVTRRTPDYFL

PP2A core = PP2A core (Homo sapiens, UniProt P67775); type: biochemical; conditions: stoichiometric amounts of inhibitor
Sequence of PP2A core (P67775 whole entry): as above
Sequence of PP2A core (P30153 whole entry, further chain): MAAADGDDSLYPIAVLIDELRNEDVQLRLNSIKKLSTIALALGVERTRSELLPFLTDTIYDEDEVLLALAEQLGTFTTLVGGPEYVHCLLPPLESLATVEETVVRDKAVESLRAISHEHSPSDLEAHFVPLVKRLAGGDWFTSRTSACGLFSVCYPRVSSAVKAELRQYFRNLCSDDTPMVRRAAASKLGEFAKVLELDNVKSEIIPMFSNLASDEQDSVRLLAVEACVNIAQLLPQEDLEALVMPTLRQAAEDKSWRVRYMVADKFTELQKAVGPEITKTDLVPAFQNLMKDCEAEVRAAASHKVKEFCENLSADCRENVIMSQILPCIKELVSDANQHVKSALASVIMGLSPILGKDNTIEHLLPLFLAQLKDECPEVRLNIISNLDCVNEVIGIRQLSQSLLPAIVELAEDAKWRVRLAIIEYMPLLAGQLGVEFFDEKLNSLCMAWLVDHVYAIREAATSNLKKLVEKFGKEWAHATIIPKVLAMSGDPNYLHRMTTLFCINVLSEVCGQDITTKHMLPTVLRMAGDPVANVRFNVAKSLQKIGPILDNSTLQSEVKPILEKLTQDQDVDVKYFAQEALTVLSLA

| SMILES | inhibition of the activity of PP2A (PP2A) | inhibition of phosphatase activity of the assembled, purified PP2A core (PP2A core) | pIC50 (PP2A; PP2A, read-out: inhibitory constant (IC50)) |
| --- | --- | --- | --- |
| C=C1C(=O)N[C@H](C)C(=O)N[C@@H](CC(C)C)C(=O)N[C@@H](C(=O)O)[C@H](C)C(=O)N[C@@H](CCCNC(=N)N)C(=O)N[C@@H](/C=C/C(C)=C/[C@H](C)[C@H](Cc2ccccc2)OC)[C@H](C)C(=O)N[C@@H](C(=O)O)CCC(=O)N1C [MCLR, microcystin-LR] (R[Adda][d(γGlu)][NMeDha][dA]L[dAsp(3S-Me)]-OH; lactam N-7) | potently inhibit |  |  |
| C=C1[C@@H](O)[C@@H]2O[C@]3(CC[C@H](/C=C/[C@@H](C)[C@@H]4CC(C)=C[C@@]5(O[C@H](C[C@@](C)(O)C(=O)O)CC[C@H]5O)O4)O3)CC[C@H]2O[C@@H]1[C@@H](O)C[C@H](C)[C@H]1O[C@@]2(CCCCO2)CC[C@H]1C [OA, okadaic acid] |  | efficiently inhibited | ~10.00 |
